In ChEMBL document CHEMBL1201862, “PubChem BioAssay data set” (2004):
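In this assay, cells in 96-well plates receive the compound at five concentrations for 48 hours. Endpoints are linearly interpolated between the surrounding concentrations. Abbreviation: GI50, concentration required for 50% inhibition of growth.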 Calls of active or inactive are those of the source. No stated cut-off is given here; in the data, active = GI50 up to about 1.1 µM and inactive = higher.

Key:
Assay in all cases: NCI anticancer screen, dose series, 48 h
SK-MEL-5 = test system: SK-MEL-5
K562 = test system: K562
UACC-62 = test system: UACC-62
NCI/ADR-RES = test system: NCI/ADR-RES
SF-539 = test system: SF-539
PC-3 = test system: PC-3
MDA-MB-231 = test system: MDA-MB-231
UACC-257 = test system: UACC-257
HCC 2998 = test system: HCC 2998
OVCAR-3 = test system: OVCAR-3
T47D = test system: T47D
Hs-578T = test system: Hs-578T
SNB-19 = test system: SNB-19
OVCAR-4 = test system: OVCAR-4
A498 = test system: A498
UO-31 = test system: UO-31
HOP-62 = test system: HOP-62
M14 = test system: M14
SK-MEL-2 = test system: SK-MEL-2

SMILES	GI50 (SK-MEL-5)	GI50 (K562)	GI50 (UACC-62)	GI50 (NCI/ADR-RES)	GI50 (SF-539)	GI50 (PC-3)	GI50 (MDA-MB-231)	GI50 (UACC-257)	GI50 (HCC 2998)	GI50 (OVCAR-3)	GI50 (T47D)	GI50 (Hs-578T)	GI50 (SNB-19)	GI50 (OVCAR-4)	GI50 (A498)	GI50 (UO-31)	GI50 (HOP-62)	GI50 (M14)	GI50 (SK-MEL-2)
CCOC(=O)c1sc2c(c1OC(=O)c1ccco1)c(=O)n(-c1ccccc1)c(=S)n2-c1ccccc1	15.8 µM (inactive)	30.4 µM (inactive)	26.2 µM (inactive)	21.4 µM (inactive)	30.7 µM (inactive)	21.4 µM (inactive)	28.1 µM (inactive)	90.2 µM (inactive)	31.4 µM (inactive)	26.5 µM (inactive)	65.6 µM (inactive)	27.5 µM (inactive)	33.2 µM (inactive)	26.8 µM (inactive)	23 µM (inactive)	1.04 µM (active)	32.1 µM (inactive)	28.2 µM (inactive)	
CCN(CC)CCNc1ccc([N+](=O)[O-])c2nc3ccc(OC)cc3c(N)c12	0.811 µM (active)	0.238 µM (active)	1.7 µM (inactive)	1.24 µM (inactive)	1.68 µM (inactive)	1.36 µM (inactive)	1.16 µM (inactive)	1.77 µM (inactive)		1.86 µM (inactive)	1.26 µM (inactive)	1.27 µM (inactive)	1.67 µM (inactive)	1.22 µM (inactive)	1.5 µM (inactive)	1.67 µM (inactive)	1.7 µM (inactive)	1.37 µM (inactive)	1.05 µM (active)
CC(C)CCC[C@@H](C)[C@H]1CC[C@H]2[C@@H]3CC[C@H]4C[C@H](N)CC[C@]4(C)[C@H]3CC[C@]12C	21.5 µM (inactive)	24.5 µM (inactive)	19.2 µM (inactive)	26.7 µM (inactive)		5.87 µM (inactive)	2.84 µM (inactive)	19 µM (inactive)	16.4 µM (inactive)	26.6 µM (inactive)	34.4 µM (inactive)	20 µM (inactive)	15.6 µM (inactive)	21.9 µM (inactive)	22.2 µM (inactive)	13.5 µM (inactive)	20 µM (inactive)	13.8 µM (inactive)	
OC1OC(c2ccc[nH]2)C(F)(F)C(F)(F)C1(F)F (stereo not drawn)	63.4 µM (inactive)		> 100 µM (inactive)	> 100 µM (inactive)	> 100 µM (inactive)	> 100 µM (inactive)	> 100 µM (inactive)	> 100 µM (inactive)		> 100 µM (inactive)	> 100 µM (inactive)	> 100 µM (inactive)	> 100 µM (inactive)	73.1 µM (inactive)	> 100 µM (inactive)	97.7 µM (inactive)	> 100 µM (inactive)	> 100 µM (inactive)	> 100 µM (inactive)
C=C[C@H]1CN2CC[C@H]1C[C@@H]2[C@@H](O)c1ccnc2ccccc12 [CINCHONINE]	> 100 µM (inactive)	55.2 µM (inactive)	> 100 µM (inactive)	> 100 µM (inactive)	> 100 µM (inactive)	> 100 µM (inactive)	> 100 µM (inactive)	> 100 µM (inactive)		> 100 µM (inactive)	> 100 µM (inactive)	1.26 µM (inactive)	> 100 µM (inactive)	58.6 µM (inactive)	63 µM (inactive)	52.7 µM (inactive)	89.9 µM (inactive)	38.1 µM (inactive)	> 100 µM (inactive)
CN(C)CCNS(=O)(=O)N(C)C	> 100 µM (inactive)	> 100 µM (inactive)	> 100 µM (inactive)	> 100 µM (inactive)	> 100 µM (inactive)	> 100 µM (inactive)	> 100 µM (inactive)	> 100 µM (inactive)		> 100 µM (inactive)	> 100 µM (inactive)	> 100 µM (inactive)	> 100 µM (inactive)	> 100 µM (inactive)	> 100 µM (inactive)		> 100 µM (inactive)	> 100 µM (inactive)	> 100 µM (inactive)
C1CNOCCCONCCCNOCCCONC1	> 100 µM (inactive)	> 100 µM (inactive)	> 100 µM (inactive)	95.3 µM (inactive)		27.6 µM (inactive)	26.8 µM (inactive)	41.7 µM (inactive)		62.2 µM (inactive)	11.3 µM (inactive)	59.3 µM (inactive)	57.3 µM (inactive)	70.3 µM (inactive)	42.5 µM (inactive)	> 100 µM (inactive)	50.1 µM (inactive)	72.1 µM (inactive)	25.1 µM (inactive)
O=S(=O)(/N=S(/Nc1ccccc1)C(F)(F)Cl)c1ccccc1 (stereo not drawn)	> 100 µM (inactive)	> 100 µM (inactive)	> 100 µM (inactive)	> 100 µM (inactive)	> 100 µM (inactive)	> 100 µM (inactive)	> 100 µM (inactive)	> 100 µM (inactive)		> 100 µM (inactive)	> 100 µM (inactive)	> 100 µM (inactive)	> 100 µM (inactive)	> 100 µM (inactive)	> 100 µM (inactive)	> 100 µM (inactive)	> 100 µM (inactive)	> 100 µM (inactive)	> 100 µM (inactive)
COc1ccc(/C=C2/NC(=S)N=C2Cl)cc1	> 100 µM (inactive)	> 100 µM (inactive)		> 100 µM (inactive)	> 100 µM (inactive)	> 100 µM (inactive)	> 100 µM (inactive)	> 100 µM (inactive)		> 100 µM (inactive)	> 100 µM (inactive)	> 100 µM (inactive)	> 100 µM (inactive)	> 100 µM (inactive)	> 100 µM (inactive)	> 100 µM (inactive)	> 100 µM (inactive)	> 100 µM (inactive)	> 100 µM (inactive)
COc1ccc(S(=O)(=O)N2C(=O)CCC2C(=O)NC(N)=O)cc1 (stereo not drawn)	> 100 µM (inactive)	> 100 µM (inactive)	> 100 µM (inactive)	> 100 µM (inactive)	> 100 µM (inactive)	> 100 µM (inactive)	> 100 µM (inactive)	> 100 µM (inactive)		> 100 µM (inactive)	> 100 µM (inactive)	> 100 µM (inactive)	> 100 µM (inactive)	> 100 µM (inactive)	> 100 µM (inactive)	> 100 µM (inactive)	> 100 µM (inactive)	> 100 µM (inactive)	> 100 µM (inactive)
Cc1nn2c(=O)c([N+](=O)[O-])c(/C=C/c3ccco3)nc2s1	25.9 µM (inactive)	36.6 µM (inactive)	65.3 µM (inactive)	46.9 µM (inactive)	47.4 µM (inactive)	68.2 µM (inactive)	63.4 µM (inactive)	87.5 µM (inactive)	> 100 µM (inactive)	38.8 µM (inactive)	27.8 µM (inactive)	27.8 µM (inactive)	59 µM (inactive)	> 100 µM (inactive)		58.7 µM (inactive)	> 100 µM (inactive)	64.7 µM (inactive)	57 µM (inactive)
